Reference: PMC5171792 (Scientific Reports, 2016)
Where two headings read alike, the source gives them in different places.

Tests used:
H1N1 NA = H1N1 NA (Influenza A virus (H1N1), UniProt C3W5S3); test: biochemical; format: biochemical
[1] = system: A/Malaysia/Muar/33/2009 (H1N1); test: Antiviral (virus inhibition) assay in MDCK cells, plaque reduction; format: cell-based; details: Influenza A virus
in vitro = details: dog
MDCK cells [2] = system: MDCK cells
MDCK cells [3] = test: Cell cytotoxicity, cell proliferation assay with WST-1 reagent

SMILES | ΔGbind (estimated experimental) (H1N1 NA) | EC50 [1] | CC50 (in vitro) | further results
CCCOC(=O)/C=C/c1ccc(O)c(OC)c1 [MY11] | -4.36 kcal/mol | – | – | –
COC(=O)/C=C/c1cc(OC)c(O)c([N+](=O)[O-])c1 [MY13] | -4.19 kcal/mol | – | – | –
CCC(CC)O[C@@H]1C=C(C(=O)O)C[C@H](N)[C@H]1NC(C)=O [Oseltamivir carboxylate, reference compound] | – | 35 µM | 351 µM | –
CCCCOC(=O)/C=C/c1ccc(O)c(OC)c1 [MY12] | -3.91 kcal/mol | – | – | –
COc1ccc(S(=O)(=O)c2ccc(/C=C/C(=O)O)cc2OC)cc1 [MY19] | -4.38 kcal/mol | – | – | –
COc1cc(C=O)ccc1O [VN, Vanillin, reference compound] | -4.78 kcal/mol | 6.05 ± 4.3 µM | 657 µM | toxicity on the MDCK cells (MDCK cells [2]): without showing any signs of toxicity at high concentrations
CCCOC(=O)/C=C/c1cc(OC)c(O)c([N+](=O)[O-])c1 [MY14] | -4.76 kcal/mol | – | – | –
CCCCOC(=O)/C=C/c1cc(OC)c(O)c([N+](=O)[O-])c1 [MY15] | -3.91 kcal/mol | ~0.95 µM | 352 µM | toxicity on the MDCK cells (MDCK cells [2]): without showing any signs of toxicity at high concentrations
COc1cc(/C=C/C(=O)O)ccc1O [FA, Ferulic acid, reference compound] | -5.02 kcal/mol | 1.32 ± 0.08 µM | – | inhibition at 125 µg/mL (H1N1 NA; read-out: % inhibition of H1N1 NA): 86%; toxicity on the MDCK cells (MDCK cells [3]): without showing any signs of toxicity at high concentrations; CC50 (in vitro; MDCK cells): 702 µM
CC(=O)N[C@H]1[C@H]([C@H](O)[C@H](O)CO)OC(C(=O)O)=C[C@@H]1O [DANA, 2-deoxy-2,3-didehydro-N-acetylneuraminic acid, reference compound] | -6.50 kcal/mol | – | – | –
COc1cc(C=O)cc(O)c1O [MY23, 3-hydroxyvanillin] | -5.43 kcal/mol | 40.5 ± 3.7 µM | 601 µM | toxicity on the MDCK cells (MDCK cells [2]): significant reduction in cell viability; % inhibition of H1N1 NA (H1N1 NA): high inhibition
COc1cc(C=O)cc(NCCO)c1O [MY22] | -4.67 kcal/mol | – | – | –
COC(=O)/C=C/c1ccc(O)c(OC)c1 [MY9] | -4.85 kcal/mol | – | – | –
COc1cc(C=O)cc(N=C(N)N)c1O [MY21, guanidino vanillin] | -5.60 kcal/mol | 1.7 ± 0.02 µM | 478 µM | toxicity on the MDCK cells (MDCK cells [2]): without showing any signs of toxicity at high concentrations
CCOC(=O)/C=C/c1ccc(O)c(OC)c1 [MY10] | -4.42 kcal/mol | – | – | –
CCOC(=O)/C=C/c1cc(OC)c(OC(C)C)c([N+](=O)[O-])c1 [MY3] | -5.27 kcal/mol | 7.5 ± 9.3 µM | 321 µM | toxicity on the MDCK cells (MDCK cells [2]): without showing any signs of toxicity at high concentrations
COc1c(O)ccc(/C=C/C(=O)O)c1[N+](=O)[O-] [MY24] | -4.31 kcal/mol | – | – | melting point: 165 to 169 °C
CCOC(=O)/C=C/c1cc(OC)c(O)c([N+](=O)[O-])c1 [MY2] | -4.70 kcal/mol | – | – | –
COc1cc(/C=C/C(=O)O)ccc1S(=O)(=O)c1ccc(Oc2ccccc2)cc1 [MY20] | -3.91 kcal/mol | – | – | –
COc1cccc(S(=O)(=O)c2ccc(/C=C/C(=O)O)cc2OC)c1 [MY18] | -3.91 kcal/mol | – | – | –
